# From patent US20250092039A1, “GLUTARIMIDE-CONTAINING PAN-KRAS-MUTANT DEGRADER COMPOUNDS AND USES THEREOF” (Tiger Biotherapeutics Inc., priority 2022, published 2025)
# What was measured:
# KRAS G12V = KRAS G12V (Homo sapiens (Human), UniProt P01116, G12V); assay: KRAS G12V degradation in SW620 cells (Western blot, DC50); assay type: cell-based; conditions: 24 hours
# In short: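 KRAS levels were quantified by fluorescent Western blot as percent of the DMSO control after 24 h of compound exposure at 37° C in homozygous KRAS G12V SW620 cells. A four-parameter variable-slope fit of the dose-response gave the half-maximal degradation concentration.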
# SW620 cells = assay: 3D cell growth inhibition of SW620 cells carrying endogenous KRAS G12V mutation (CellTiter-Glo 3D, GI50); assay type: cell-based; conditions: Homo sapiens, SW-620, 144 h; SW620 cells, 6 days; read-out: SW620 3D cell growth GI50
# Protocol: The following day, the test compound was administered to the cells by using 1000× compound stock solution prepared in DMSO at various concentrations. 1000× compound stock solution was first diluted in culturing medium to 10×, then 10 μL compound medium was added to each well in the cell plates. After administration of the compound, the cells were then incubated at 37° C. for 6 days. Upon completion, the plates were equilibrated at room temperature for approximately 10 minutes. 100 μL of CellTiter-Glo® 3D Reagent (Promega) was added to each well. The plates were then incubated at room temperature for 30 minutes and luminescence was recorded by EnSpire plate reader (PerkinElmer).
# KRAS-G12V/RAF1 = KRAS-G12V/RAF1 (Homo sapiens (Human), UniProt P01116, G12V); assay: KRAS/RAF1 binding inhibition assay (AlphaScreen)
# Sequence of KRAS-G12V/RAF1 (P01116-2 other isoform, or with tags, fused parts or gaps G12V): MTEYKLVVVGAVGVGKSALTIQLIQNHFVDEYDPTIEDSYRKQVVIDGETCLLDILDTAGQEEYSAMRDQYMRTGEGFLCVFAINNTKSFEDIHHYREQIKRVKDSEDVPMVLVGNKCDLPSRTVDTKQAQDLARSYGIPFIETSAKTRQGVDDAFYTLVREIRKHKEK
# In short: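 IC50 comes from variable-slope nonlinear fits of % inhibition (relative to DMSO) against inhibitor concentration. The AlphaScreen signal tracks the interaction of GppNHp-bound KRAS G12V with the RAF1 RBD after 60 min at 4° C with compound in 2% DMSO final.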
# Sequence of KRAS G12V (P01116-2 other isoform, or with tags, fused parts or gaps G12V): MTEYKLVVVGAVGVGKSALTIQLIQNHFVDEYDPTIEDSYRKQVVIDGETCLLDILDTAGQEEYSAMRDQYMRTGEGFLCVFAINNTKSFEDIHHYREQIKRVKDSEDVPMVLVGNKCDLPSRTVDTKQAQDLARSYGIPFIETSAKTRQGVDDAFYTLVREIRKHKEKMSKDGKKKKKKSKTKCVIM
DC50 (KRAS G12V) [nM],GI50 (SW620 cells) [nM],IC50 (KRAS-G12V/RAF1) [nM],SMILES
> 100,> 100,20 to 200,"CCc1cccc2cc(O)cc(-c3ncc4c(N5CCC[C@@](C)(O)C5)nc(OCC5(CN6CC(CN7CC8(CCN(c9ccc%10c(c9)CN(C9CCC(=O)NC9=O)C%10=O)CC8)C7)C6)CC5)nc4c3F)c12 (stereo partly drawn) [Compound 17, 3-(5-(2-((1-((1-(((7-(8-ethyl-3-hydroxynaphthalen-1-yl)-8-fluoro-4-((R)-3-hydroxy-3-methylpiperidin-1-yl)pyrido[4,3-d]pyrimidin-2-yl)oxy)methyl)cyclopropyl)methyl)azetidin-3-yl)methyl)-2,7-diazaspiro[3.5]nonan-7-yl)-1-oxoisoindolin-2-yl)piperidine-2,6-dione]"
> 100,10 to 100,< 20,"CCc1cccc2cc(O)cc(-c3ncc4c(N5CCC[C@@](C)(O)C5)nc(OCC5(CN6CC[C@@H](CN7CC8(CCN(c9ccc%10c(c9)CN(C9CCC(=O)NC9=O)C%10=O)CC8)C7)C6)CC5)nc4c3F)c12 (stereo partly drawn) [Compound 18, 3-(5-(2-(((R)-1-((1-(((7-(8-ethyl-3-hydroxynaphthalen-1-yl)-8-fluoro-4-((R)-3-hydroxy-3-methylpiperidin-1-yl)pyrido[4,3-d]pyrimidin-2-yl)oxy)methyl)cyclopropyl)methyl)pyrrolidin-3-yl)methyl)-2,7-diazaspiro[3.5]nonan-7-yl)-1-oxoisoindolin-2-yl)piperidine-2,6-dione]"
1 to 10,10 to 100,20 to 200,"CCc1cccc2cc(O)cc(-c3ncc4c(N5CCC[C@@](C)(O)C5)nc(OCC5(CN6CCC(CN7CC8(CCN(c9ccc%10c(c9)CN(C9CCC(=O)NC9=O)C%10=O)CC8)C7)CC6)CC5)nc4c3F)c12 (stereo partly drawn) [Compound 19, 3-(5-(2-((1-((1-(((7-(8-ethyl-3-hydroxynaphthalen-1-yl)-8-fluoro-4-((R)-3-hydroxy-3-methylpiperidin-1-yl)pyrido[4,3-d]pyrimidin-2-yl)oxy)methyl)cyclopropyl)methyl)piperidin-4-yl)methyl)-2,7-diazaspiro[3.5]nonan-7-yl)-1-oxoisoindolin-2-yl)piperidine-2,6-dione]"
> 100,10 to 100,< 20,"CCc1cccc2cc(O)cc(-c3ncc4c(N5CCC[C@@](C)(O)C5)nc(OCC5(CN6CC[C@H](CN7CC8(CCN(c9ccc%10c(c9)CN(C9CCC(=O)NC9=O)C%10=O)CC8)C7)C6)CC5)nc4c3F)c12 (stereo partly drawn) [Compound 22, 3-(5-(2-(((S)-1-((1-(((7-(8-ethyl-3-hydroxynaphthalen-1-yl)-8-fluoro-4-((R)-3-hydroxy-3-methylpiperidin-1-yl)pyrido[4,3-d]pyrimidin-2-yl)oxy)methyl)cyclopropyl)methyl)pyrrolidin-3-yl)methyl)-2,7-diazaspiro[3.5]nonan-7-yl)-1-oxoisoindolin-2-yl)piperidine-2,6-dione]"

# Continued, molecule first:
SMILES,DC50 (KRAS G12V) [nM],GI50 (SW620 cells) [nM],IC50 (KRAS-G12V/RAF1) [nM]
"CCc1c(F)ccc2cc(O)cc(-c3ncc4c(N5CCC[C@@](C)(O)C5)nc(OCC5(CN6CC(N7CC(CN8CCN(c9ccc%10c(c9)CN([C@@H]9CCC(=O)NC9=O)C%10=O)CC8)C7)C6)CC5)nc4c3F)c12 [Compound 9, (R)-3-(5-(4-((1′-((1-(((7-(8-ethyl-7-fluoro-3-hydroxynaphthalen-1-yl)-8-fluoro-4-((R)-3-hydroxy-3-methylpiperidin-1-yl)pyrido[4,3-d]pyrimidin-2-yl)oxy)methyl)cyclopropyl)methyl)-[1,3′-biazetidin]-3-yl)methyl)piperazin-1-yl)-1-oxoisoindolin-2-yl)piperidine-2,6-dione]",1 to 10,10 to 100,< 20
"CCc1c(F)ccc2cc(O)cc(-c3ncc4c(N5CCC[C@@](C)(O)C5)nc(OCC5(CN6CCN(CC7CCN(c8ccc9c(c8)CN([C@H]8CCC(=O)NC8=O)C9=O)CC7)CC6)CC5)nc4c3F)c12 [Compound 10, (S)-3-(5-(4-((4-((1-(((7-(8-ethyl-7-fluoro-3-hydroxynaphthalen-1-yl)-8-fluoro-4-((R)-3-hydroxy-3-methylpiperidin-1-yl)pyrido[4,3-d]pyrimidin-2-yl)oxy)methyl)cyclopropyl)methyl)piperazin-1-yl)methyl)piperidin-1-yl)-1-oxoisoindolin-2-yl)piperidine-2,6-dione]",< 1,< 10,20 to 200
"CCc1c(F)ccc2cc(O)cc(-c3ncc4c(N5CCC[C@@](C)(O)C5)nc(OCC5(CN6CC7(CC(CN8CCN(c9ccc%10c(c9)CN([C@@H]9CCC(=O)NC9=O)C%10=O)CC8)C7)C6)CC5)nc4c3F)c12 [Compound 11, (R)-3-(5-(4-((2-((1-(((7-(8-ethyl-7-fluoro-3-hydroxynaphthalen-1-yl)-8-fluoro-4-((R)-3-hydroxy-3-methylpiperidin-1-yl)pyrido[4,3-d]pyrimidin-2-yl)oxy)methyl)cyclopropyl)methyl)-2-azaspiro[3.3]heptan-6-yl)methyl)piperazin-1-yl)-1-oxoisoindolin-2-yl)piperidine-2,6-dione]",1 to 10,10 to 100,< 20
"CCc1c(F)ccc2cc(O)cc(-c3ncc4c(N5CCC[C@@](C)(O)C5)nc(OCC5(CN6CCC(O)(CN7CCN(c8ccc9c(c8)CN([C@H]8CCC(=O)NC8=O)C9=O)CC7)CC6)CC5)nc4c3F)c12 [Compound 13, (S)-3-(5-(4-((1-((1-(((7-(8-ethyl-7-fluoro-3-hydroxynaphthalen-1-yl)-8-fluoro-4-((R)-3-hydroxy-3-methylpiperidin-1-yl)pyrido[4,3-d]pyrimidin-2-yl)oxy)methyl)cyclopropyl)methyl)-4-hydroxypiperidin-4-yl)methyl)piperazin-1-yl)-1-oxoisoindolin-2-yl)piperidine-2,6-dione]",1 to 10,10 to 100,< 20
"CCc1c(F)ccc2cc(O)cc(-c3ncc4c(N5CCC[C@@](C)(O)C5)nc(OCC5(CN6CCC(CN7CCN(c8ccc(C9CCC(=O)NC9=O)cc8)CC7)CC6)CC5)nc4c3F)c12 (stereo partly drawn) [Compound 14, 3-(4-(4-((1-((1-(((7-(8-ethyl-7-fluoro-3-hydroxynaphthalen-1-yl)-8-fluoro-4-((R)-3-hydroxy-3-methylpiperidin-1-yl)pyrido[4,3-d]pyrimidin-2-yl)oxy)methyl)cyclopropyl)methyl)piperidin-4-yl)methyl)piperazin-1-yl)phenyl)piperidine-2,6-dione]",> 100,10 to 100,< 20
"CCc1cccc2cc(O)cc(-c3ncc4c(N(C)C5CC5)nc(OCC5(CN6CCC(CN7CCN(c8ccc9c(c8)CN([C@H]8CCC(=O)NC8=O)C9=O)CC7)CC6)CC5)nc4c3F)c12 [Compound 15, (S)-3-(5-(4-((1-((1-(((4-(cyclopropyl(methyl)amino)-7-(8-ethyl-3-hydroxynaphthalen-1-yl)-8-fluoropyrido[4,3-d]pyrimidin-2-yl)oxy)methyl)cyclopropyl)methyl)piperidin-4-yl)methyl)piperazin-1-yl)-1-oxoisoindolin-2-yl)piperidine-2,6-dione]",> 100,> 100,> 200
"CCc1cccc2cc(O)cc(-c3ncc4c(N5CCC[C@@](C)(O)C5)nc(OCC5(CN6CC7(CCN(c8ccc9c(c8)CN(C8CCC(=O)NC8=O)C9=O)CC7)C6)CC5)nc4c3F)c12 (stereo partly drawn) [Compound 16, 3-(5-(2-((1-(((7-(8-ethyl-3-hydroxynaphthalen-1-yl)-8-fluoro-4-((R)-3-hydroxy-3-methylpiperidin-1-yl)pyrido[4,3-d]pyrimidin-2-yl)oxy)methyl)cyclopropyl)methyl)-2,7-diazaspiro[3.5]nonan-7-yl)-1-oxoisoindolin-2-yl)piperidine-2,6-dione]",> 100,> 100,20 to 200
"CCc1c(F)ccc2cc(O)cc(-c3ncc4c(N5CCC[C@@](C)(O)C5)nc(OCC5(CN6CCC(C#N)(CN7CCN(c8ccc9c(c8)CN([C@H]8CCC(=O)NC8=O)C9=O)CC7)CC6)CC5)nc4c3F)c12 [Compound 20, 4-((4-(2-((S)-2,6-dioxopiperidin-3-yl)-1-oxoisoindolin-5-yl)piperazin-1-yl)methyl)-1-((1-(((7-(8-ethyl-7-fluoro-3-hydroxynaphthalen-1-yl)-8-fluoro-4-((R)-3-hydroxy-3-methylpiperidin-1-yl)pyrido[4,3-d]pyrimidin-2-yl)oxy)methyl)cyclopropyl)methyl)piperidine-4-carbonitrile]",> 100,< 10,> 200
"CCc1cccc2cc(O)cc(-c3ncc4c(N5CCC[C@@](C)(O)C5)nc(OCC5(CN6CCC(OC7CCN(c8ccc9c(c8)CN(C8CCC(=O)NC8=O)C9=O)CC7)CC6)CC5)nc4c3F)c12 (stereo partly drawn) [Compound 24, 3-(5-(4-((1-((1-(((7-(8-ethyl-3-hydroxynaphthalen-1-yl)-8-fluoro-4-((R)-3-hydroxy-3-methylpiperidin-1-yl)pyrido[4,3-d]pyrimidin-2-yl)oxy)methyl)cyclopropyl)methyl)piperidin-4-yl)oxy)piperidin-1-yl)-1-oxoisoindolin-2-yl)piperidine-2,6-dione]",< 1,< 10,20 to 200
